Values quoted from earlier work, collected in Sander's compilation of Henry's law constants.
“And” between values parts separate entries of the source, which are not always exact repeats. Equal entries are not always repeated. Values belong to the molecule of their own block, whether it stands above or below them.

Assay: Henry solubility constant Hcp at 298.15 K (mol/(m3 Pa))
Conditions: cited value
[1] = reference: Burkholder et al. (2015)
[2] = reference: Burkholder et al. (2019)
[3] = reference: Barcelo and Hennion (1997)
[4] = reference: Mackay et al. (1992b)
[5] = reference: Mackay et al. (1995)
[6] = reference: Sander et al. (2006)
[7] = reference: Sander et al. (2011)
[8] = reference: Wania and Dugani (2003)
[9] = reference: Fogg and Sangster (2003)

SMILES: C=COC(C)=O [ethenyl ethanoate]
Henry solubility constant Hcp (reference: Brockbank (2013)): 0.02 | Henry solubility constant Hcp [1]: 0.02 | Henry solubility constant Hcp [2]: 0.02 | Henry solubility constant Hcp (reference: Goldstein (1982)): 0.017

Henry solubility constant Hcp (reference: Howard and Meylan (1997)): 0.0077
SMILES: CCCOCC [ethyl propyl ether]

SMILES: CC(C)Nc1nc(Cl)nc(NC(C)C)n1 [propazine]
Henry solubility constant Hcp [3]: 99

SMILES: CCNc1nc(Cl)nc(NCC)n1 [simazine]
Henry solubility constant Hcp [3]: 29

Henry solubility constant Hcp (reference: Jacob (1986)): 0.25
SMILES: [OH] [hydroxyl radical]

Henry solubility constant Hcp [4]: 0.025
SMILES: C(=C\c1ccccc1)/c1ccccc1 [(E)-stilbene]

SMILES: CN(C)N=O [N-nitrosodimethylamine]
Henry solubility constant Hcp [1]: 3.9 | Henry solubility constant Hcp [2]: 3.9 | Henry solubility constant Hcp [5]: 0.3

Henry solubility constant Hcp (reference: Régimbal and Mozurkewich (1997)): 57
SMILES: [O-]O [hydroperoxy radical]

SMILES: CC(C)CO [2-methyl-1-propanol]
Henry solubility constant Hcp (reference: Brockbank (2013)): 0.8 | Henry solubility constant Hcp [1]: 0.83 | Henry solubility constant Hcp [2]: 0.83 | Henry solubility constant Hcp [6]: 1 | Henry solubility constant Hcp [7]: 1

Henry solubility constant Hcp (reference: Brockbank (2013)): 0.0072
SMILES: CCOC(C)(C)C [ethyl tert-butyl ether]

SMILES: CCOC(=O)COc1cc(-c2nn(C)c(OC(F)F)c2Cl)c(F)cc1Cl [pyraflufen-ethyl]
Henry solubility constant Hcp (reference: MacBean (2012b)): 12000

Henry solubility constant Hcp (reference: Brockbank (2013)): 0.0013
SMILES: C1=CCC=CC1 [1,4-cyclohexadiene]

SMILES: OCCO [1,2-ethanediol]
Henry solubility constant Hcp [1]: 6500 | Henry solubility constant Hcp [2]: 6500

Henry solubility constant Hcp (reference: Brockbank (2013)): 1.2
SMILES: O=C1CCCC1 [cyclopentanone]

Henry solubility constant Hcp (reference: Howard et al. (1991)): 3.5
SMILES: c1ccc(Nc2ccccc2)cc1 [diphenylamine]

SMILES: Cc1cccc([N+](=O)[O-])c1 [3-nitrotoluene]
Henry solubility constant Hcp (reference: Brockbank (2013)): 0.27 | Henry solubility constant Hcp (reference: Goldstein (1982)): 0.14

SMILES: CCSC [ethyl methyl sulfide]
Henry solubility constant Hcp [1]: 0.0042 | Henry solubility constant Hcp [2]: 0.0042

SMILES: FC(F)(F)Cl [chlorotrifluoromethane]
Henry solubility constant Hcp [1]: 9.9e-06 | Henry solubility constant Hcp [2]: 9.9e-06 | Henry solubility constant Hcp [7]: 9.9e-06

SMILES: CNC(=O)Oc1cc(C)c(SC)c(C)c1 [methiocarb]
Henry solubility constant Hcp (reference: MacBean (2012b)): 8400

Henry solubility constant Hcp (reference: Brockbank (2013)): 0.0013
SMILES: CC(C)S [2-propanethiol]

SMILES: CN=C=S [methyl isothiocyanate]
Henry solubility constant Hcp [1]: 0.17 | Henry solubility constant Hcp [2]: 0.17 | Henry solubility constant Hcp [7]: 0.17

Henry solubility constant Hcp (reference: Brockbank (2013)): 0.39
SMILES: CCCCC(C)O (centres undefined) [2-hexanol]

SMILES: ClCC1CO1 (centres undefined) [(chloromethyl)-oxirane]
Henry solubility constant Hcp (reference: Goldstein (1982)): 0.28

SMILES: CS(C)=O [dimethylsulfoxide]
Henry solubility constant Hcp (reference: Betterton (1992)): 14 | Henry solubility constant Hcp (reference: Brockbank (2013)): 8000 | Henry solubility constant Hcp [1]: 980 | Henry solubility constant Hcp [2]: 980 | Henry solubility constant Hcp [6]: 980 | Henry solubility constant Hcp [7]: 980

SMILES: [CH3][Hg][CH3] [dimethylmercury]
Henry solubility constant Hcp (reference: Abraham et al. (2008)): 0.0021 | Henry solubility constant Hcp (reference: WHO (1990)): 0.0013

Henry solubility constant Hcp (reference: Clever (1979a)): 3.8e-06 | Henry solubility constant Hcp (reference: Himmelblau (1960)): 3.7e-06
SMILES: [He] [helium]

SMILES: CCCCOC(C)=O [butyl ethanoate]
Henry solubility constant Hcp (reference: Brockbank (2013)): 0.038 | Henry solubility constant Hcp (reference: Goldstein (1982)): 0.021

Henry solubility constant Hcp (reference: Brockbank (2013)): 2.7e-06
SMILES: CCCC(C)CCC [4-methylheptane]

SMILES: O=C(O)C(Cl)Cl [dichloroethanoic acid]
Henry solubility constant Hcp [1]: 1200 | Henry solubility constant Hcp [2]: 1200 | Henry solubility constant Hcp [7]: 1200

SMILES: CC(C)N1C(=O)c2ccccc2NS1(=O)=O [bentazone]
Henry solubility constant Hcp [3]: 130

SMILES: CCOP(=S)(OCC)Oc1cc(C)nc(C(C)C)n1 [diazinon]
Henry solubility constant Hcp [3]: 0.15 | Henry solubility constant Hcp (reference: Muir et al. (2004)): 46 and 92

SMILES: Cc1ccc([N+](=O)[O-])cc1 [4-nitrotoluene]
Henry solubility constant Hcp (reference: Brockbank (2013)): 0.89 | Henry solubility constant Hcp (reference: Goldstein (1982)): 0.16

Henry solubility constant Hcp (reference: Brockbank (2013)): 0.11 | Henry solubility constant Hcp (reference: Howard (1993)): 0.1
SMILES: CCCCC(C)=O [2-hexanone]

Henry solubility constant Hcp (reference: Brockbank (2013)): 0.011
SMILES: CCCC(=O)OCCC(C)C [3-methylbutyl butanoate]

SMILES: OCC(Cl)Cl [2,2-dichloroethanol]
Henry solubility constant Hcp [1]: 0.37 | Henry solubility constant Hcp [2]: 0.37

Henry solubility constant Hcp (reference: Brockbank (2013)): 0.026
SMILES: CCCOC(=O)CC [propyl propanoate]

SMILES: COC(=O)N(OC)c1ccccc1COc1ccn(-c2ccc(Cl)cc2)n1 [pyraclostrobine]
Henry solubility constant Hcp (reference: MacBean (2012b)): 190000

Henry solubility constant Hcp (reference: Brockbank (2013)): 0.044
SMILES: CCCOC(C)=O [propyl ethanoate]

SMILES: CC[N+](=O)[O-] [nitroethane]
Henry solubility constant Hcp (reference: Brockbank (2013)): 0.21 | Henry solubility constant Hcp [1]: 0.21 | Henry solubility constant Hcp [2]: 0.21 | Henry solubility constant Hcp (reference: Gaffney and Senum (1984)): 0.21 | Henry solubility constant Hcp [6]: 0.21 | Henry solubility constant Hcp [7]: 0.21

Henry solubility constant Hcp (reference: Brockbank (2013)): 0.00014
SMILES: CCCCCCCCCc1ccccc1 [nonylbenzene]

SMILES: ClC1=C(Cl)C(Cl)(Cl)C(Cl)=C1Cl [hexachlorocyclopentadiene]
Henry solubility constant Hcp (reference: Goldstein (1982)): 0.0006

SMILES: FOF [difluorine monoxide]
Henry solubility constant Hcp (reference: Schäfer and Lax (1962)): 2.9e-05

SMILES: Brc1ccc(Oc2ccc(Br)cc2Br)cc1 [2,4,4'-tribromodiphenyl ether]
Henry solubility constant Hcp [8]: 0.52

SMILES: CCCCCCCC#N [octanenitrile]
Henry solubility constant Hcp (reference: Plyasunov et al. (2006)): 0.057

SMILES: ClC1C(Cl)C(Cl)C(Cl)C(Cl)C1Cl (stereo not drawn) [α-1,2,3,4,5,6-hexachlorocyclohexane]
Henry solubility constant Hcp (reference: Xiao et al. (2004)): 1.5 and 1.4

Henry solubility constant Hcp (reference: Brockbank (2013)): 4.4e-06
SMILES: CCCCCCC [heptane]

Henry solubility constant Hcp (reference: Clever (1979b)): 2.5e-05
SMILES: [Kr] [krypton]

SMILES: COc1ccc(-c2ccccc2)cc1NNC(=O)OC(C)C [bifenazate]
Henry solubility constant Hcp (reference: MacBean (2012b)): 1000

Henry solubility constant Hcp (reference: Brockbank (2013)): 0.015
SMILES: CCOC(=O)C(C)C [ethyl 2-methylpropanoate]

Henry solubility constant Hcp (reference: Brockbank (2013)): 0.00041
SMILES: CCCCCCl [1-chloropentane]

SMILES: [HH] [hydrogen]
Henry solubility constant Hcp (reference: Himmelblau (1960)): 7.8e-06 | Henry solubility constant Hcp (reference: Hine and Weimar (1965)): 7.7e-06 | Henry solubility constant Hcp (reference: Young (1981a)): 7.7e-06

SMILES: CN1CSC(=S)N(C)C1 [dazomet]
Henry solubility constant Hcp (reference: MacBean (2012b)): 37000

SMILES: O=[N+]([O-])c1ccccc1 [nitrobenzene]
Henry solubility constant Hcp (reference: Brockbank (2013)): 0.47 | Henry solubility constant Hcp (reference: Goldstein (1982)): 0.47 | Henry solubility constant Hcp [5]: 0.75

SMILES: Brc1ccccc1 [bromobenzene]
Henry solubility constant Hcp (reference: Brockbank (2013)): 0.0043 | Henry solubility constant Hcp [9]: 0.005 | Henry solubility constant Hcp (reference: HSDB (2015)): 0.0047

Henry solubility constant Hcp (reference: Brockbank (2013)): 2.9e-06
SMILES: CC(C)CC(C)C [2,4-dimethylpentane]

SMILES: CCCN(CCC)c1c([N+](=O)[O-])cc(C(F)(F)F)cc1[N+](=O)[O-] [trifluralin]
Henry solubility constant Hcp [3]: 0.0025 | Henry solubility constant Hcp (reference: HSDB (2015)): 0.096

SMILES: CCCC=O [butanal]
Henry solubility constant Hcp (reference: Brockbank (2013)): 0.091 | Henry solubility constant Hcp [1]: 0.095 | Henry solubility constant Hcp [2]: 0.095 | Henry solubility constant Hcp [6]: 0.095 | Henry solubility constant Hcp [7]: 0.095

SMILES: CC(=O)CC(C)C [4-methyl-2-pentanone]
Henry solubility constant Hcp (reference: Brockbank (2013)): 0.069 | Henry solubility constant Hcp (reference: Howard (1990)): 0.11

Henry solubility constant Hcp (reference: Brockbank (2013)): 0.00021
SMILES: C1=C\CCCCCC/1 [cyclooctene]

Henry solubility constant Hcp (reference: Brockbank (2013)): 0.67
SMILES: CCCC(C)O (centres undefined) [2-pentanol]

Henry solubility constant Hcp (reference: Brockbank (2013)): 0.0036 | Henry solubility constant Hcp [9]: 0.0038 | Henry solubility constant Hcp (reference: Goldstein (1982)): 0.0038
SMILES: C=Cc1ccccc1 [ethenylbenzene]

SMILES: c1ccccc1 [benzene]
Henry solubility constant Hcp (reference: Brockbank (2013)): 0.0018 | Henry solubility constant Hcp (reference: Goldstein (1982)): 0.0018

Henry solubility constant Hcp (reference: Brockbank (2013)): 0.35
SMILES: N#Cc1ccccc1 [benzenenitrile]

Henry solubility constant Hcp (reference: Brockbank (2013)): 5.7e-06
SMILES: CCC(C)(C)C [2,2-dimethylbutane]

SMILES: COP(=S)(OC)Oc1ccc(Sc2ccc(OP(=S)(OC)OC)cc2)cc1 [temefos]
Henry solubility constant Hcp [3]: 1.7

Henry solubility constant Hcp (reference: Brockbank (2013)): 0.0006
SMILES: CCCCCc1ccccc1 [pentylbenzene]

SMILES: ClCCCCl [1,3-dichloropropane]
Henry solubility constant Hcp (reference: Brockbank (2013)): 0.012 | Henry solubility constant Hcp [1]: 0.01 | Henry solubility constant Hcp [2]: 0.01

SMILES: COC(=O)Nc1cccc(OC(=O)Nc2cccc(C)c2)c1 [phenmedipham]
Henry solubility constant Hcp [3]: 120000

Henry solubility constant Hcp (reference: Brockbank (2013)): 1700
SMILES: COc1cc(C=O)ccc1O [vanillin]

Henry solubility constant Hcp (reference: Deno and Berkheimer (1960)): 9.2e-05
SMILES: C=CC [propene]

SMILES: OC[C@@H](O)[C@@H](O)CO [2(R),3(S)-1,2,3,4-butanetetrol]
Henry solubility constant Hcp [1]: 1.1e+10 | Henry solubility constant Hcp [2]: 1.1e+10

Henry solubility constant Hcp (reference: Brockbank (2013)): 0.76
SMILES: CCC(C)CO (centres undefined) [2-methyl-1-butanol]

SMILES: CCCl [chloroethane]
Henry solubility constant Hcp (reference: Brockbank (2013)): 0.00081 | Henry solubility constant Hcp [1]: 0.00083 | Henry solubility constant Hcp [2]: 0.00081 | Henry solubility constant Hcp (reference: Goldstein (1982)): 0.00068

Henry solubility constant Hcp (reference: Muir et al. (2004)): 4.4
SMILES: COC(=O)c1c(Cl)c(Cl)c(C(=O)OC)c(Cl)c1Cl [dacthal]

Henry solubility constant Hcp (reference: Brockbank (2013)): 0.021 | Henry solubility constant Hcp [9]: 0.022 | Henry solubility constant Hcp (reference: Goldstein (1982)): 0.021 | Henry solubility constant Hcp (reference: McCarty (1980)): 0.027
SMILES: c1ccc2ccccc2c1 [naphthalene]

SMILES: ClBr [bromine chloride]
Henry solubility constant Hcp [1]: 0.0097 | Henry solubility constant Hcp [2]: 0.0097 | Henry solubility constant Hcp [6]: 0.0097 | Henry solubility constant Hcp [7]: 0.0097

SMILES: CCc1cccc2ccccc12 [1-ethylnaphthalene]
Henry solubility constant Hcp (reference: Brockbank (2013)): 0.02 | Henry solubility constant Hcp [4]: 0.026

Henry solubility constant Hcp (reference: Brockbank (2013)): 0.00012
SMILES: C#CCCCCCC [1-octyne]

SMILES: Clc1ccccc1 [chlorobenzene]
Henry solubility constant Hcp (reference: Brockbank (2013)): 0.0026 | Henry solubility constant Hcp (reference: Goldstein (1982)): 0.0025

SMILES: Brc1ccc(Oc2ccc(Br)cc2Br)c(Br)c1 [2,2',4,4'-tetrabromodiphenyl ether]
Henry solubility constant Hcp [8]: 0.9
